Laboratory results: the supplement of paper PMC10307832

Experiments:
Experiment in all cases: relative viability (nuclei count vs DMSO), 5 days (fraction); higher = more cells survive
[1] = compound: C1CN(CCC1C(C2=CC3=C(C=C2)OCO3)(C4=CC5=C(C=C4)OCO5)O)C(=O)OC6=CC=C(C=C6)[N+](=O)[O-] [JZL-184]
Method in brief: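 MetaXpress counted nuclei in 4× images of lung cancer cell lines that had been fixed, permeabilised and Hoechst-stained in one step. Before that, cells in 1536-well plates were kept overnight at 37 °C, pinned with five √10-spaced library-drug doses on vehicle-anchored plates, and cultured 5 days without medium change. Viability takes treated-well nuclei over vehicle-well nuclei and uses the median across plates. Plates were accepted only at control CV below 25% and at least one doubling.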

[2] = compound: C1CN(CCC1C(C2=CC3=C(C=C2)OCO3)(C4=CC5=C(C=C4)OCO5)O)C(=O)OC6=CC=C(C=C6)[N+](=O)[O-] [JZL-184] + CC(=O)Nc1cccc(-n2c(=O)n(C3CC3)c(=O)c3c(Nc4ccc(I)cc4F)n(C)c(=O)c(C)c32)c1 [Trametinib] (partner 0.02 µM)
Method in brief: (§1)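 Five library-drug doses in √10 steps were combined with a fixed anchor-drug dose, or a single drug was given alone, by pin tool to lung cancer cell lines in 1536-well plates the day after seeding. Nuclei were stained and counted after 5 days. Relative viability is the nuclei count in treated wells over that in vehicle wells, taken as the median of duplicate plates.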

[3] = compound: C1CN(CCC1C(C2=CC3=C(C=C2)OCO3)(C4=CC5=C(C=C4)OCO5)O)C(=O)OC6=CC=C(C=C6)[N+](=O)[O-] [JZL-184] + CC(=O)c1c(C)c2cnc(Nc3ccc(N4CCNCC4)cn3)nc2n(C2CCCC2)c1=O [Palbociclib] (partner 0.5 µM)
Method in brief: as §1

[4] = compound: C1CN(CCC1C(C2=CC3=C(C=C2)OCO3)(C4=CC5=C(C=C4)OCO5)O)C(=O)OC6=CC=C(C=C6)[N+](=O)[O-] [JZL-184] + COc1cccc2cc(-c3nc([C@H]4CC[C@H](C(=O)O)CC4)n4ncnc(N)c34)[nH]c12 [OSI-027] (partner 0.5 µM)
Method in brief: as §1

[5] = compound: C1CN(CCC1C(C2=CC3=C(C=C2)OCO3)(C4=CC5=C(C=C4)OCO5)O)C(=O)OC6=CC=C(C=C6)[N+](=O)[O-] [JZL-184] + Cc1cc(Nc2cc(N3CCN(C)CC3)nc(Sc3ccc(NC(=O)C4CC4)cc3)n2)n[nH]1 [Tozasertib] (partner 0.1 µM)
Method in brief: as §1

[6] = compound: C1CN(CCC1C(C2=CC3=C(C=C2)OCO3)(C4=CC5=C(C=C4)OCO5)O)C(=O)OC6=CC=C(C=C6)[N+](=O)[O-] [JZL-184] + NC(=O)Nc1cc(-c2cccc(F)c2)sc1C(=O)N[C@H]1CCCNC1 [AZD7762] (partner 0.2 µM)
Method in brief: as §1

[7] = compound: C1CN(CCC1C(C2=CC3=C(C=C2)OCO3)(C4=CC5=C(C=C4)OCO5)O)C(=O)OC6=CC=C(C=C6)[N+](=O)[O-] [JZL-184] + Nc1nc2[nH]cc(CCc3ccc(C(=O)N[C@@H](CCC(=O)O)C(=O)O)cc3)c2c(=O)[nH]1 [Pemetrexed] (partner 0.2 µM)
Method in brief: as §1

[8] = compound: C1CN(CCC1C(C2=CC3=C(C=C2)OCO3)(C4=CC5=C(C=C4)OCO5)O)C(=O)OC6=CC=C(C=C6)[N+](=O)[O-] [JZL-184] + Nc1ncn([C@H]2C[C@H](O)[C@@H](CO)O2)c(=O)n1 [Decitabine] (partner 2 µM)
Method in brief: as §1

[9] = compound: C1CN(CCC1C(C2=CC3=C(C=C2)OCO3)(C4=CC5=C(C=C4)OCO5)O)C(=O)OC6=CC=C(C=C6)[N+](=O)[O-] [JZL-184] + O=C(CCCCCCC(=O)Nc1ccccc1)NO [Vorinostat] (partner 1 µM)
Method in brief: as §1

[10] = compound: C1CN(CCC1C(C2=CC3=C(C=C2)OCO3)(C4=CC5=C(C=C4)OCO5)O)C(=O)OC6=CC=C(C=C6)[N+](=O)[O-] [JZL-184] + O=C(c1cc(Cc2n[nH]c(=O)c3ccccc23)ccc1F)N1CCN(C(=O)C2CC2)CC1 [Olaparib] (partner 8 µM)
Method in brief: as §1

[11] = compound: C1CN(CCC1C(C2=CC3=C(C=C2)OCO3)(C4=CC5=C(C=C4)OCO5)O)C(=O)OC6=CC=C(C=C6)[N+](=O)[O-] [JZL-184] + CC(C)C[C@H](NC(=O)[C@H](Cc1ccccc1)NC(=O)c1cnccn1)B(O)O [Bortezomib] (partner 0.002 µM)
Method in brief: as §1

[12] = compound: C1CN(CCC1C(C2=CC3=C(C=C2)OCO3)(C4=CC5=C(C=C4)OCO5)O)C(=O)OC6=CC=C(C=C6)[N+](=O)[O-] [JZL-184] + CC1(C)CCC(c2ccc(Cl)cc2)=C(CN2CCN(c3ccc(C(=O)NS(=O)(=O)c4ccc(N[C@H](CCN5CCOCC5)CSc5ccccc5)c(S(=O)(=O)C(F)(F)F)c4)cc3)CC2)C1 [Navitoclax] (partner 0.5 µM)
Method in brief: as §1

[13] = compound: C1CN(CCC1C(C2=CC3=C(C=C2)OCO3)(C4=CC5=C(C=C4)OCO5)O)C(=O)OC6=CC=C(C=C6)[N+](=O)[O-] [JZL-184] + COc1cc2c(Oc3ccc(NC(=O)C4(C(=O)Nc5ccc(F)cc5)CC4)cc3F)ccnc2cc1OCCCN1CCOCC1 [Foretinib] (partner 0.25 µM)
Method in brief: as §1

[14] = compound: C1CN(CCC1C(C2=CC3=C(C=C2)OCO3)(C4=CC5=C(C=C4)OCO5)O)C(=O)OC6=CC=C(C=C6)[N+](=O)[O-] [JZL-184] + CS(=O)(=O)CCNCc1ccc(-c2ccc3ncnc(Nc4ccc(OCc5cccc(F)c5)c(Cl)c4)c3c2)o1 [Lapatinib] (partner 2 µM)
Method in brief: as §1

[15] = compound: C1CN(CCC1C(C2=CC3=C(C=C2)OCO3)(C4=CC5=C(C=C4)OCO5)O)C(=O)OC6=CC=C(C=C6)[N+](=O)[O-] [JZL-184] + CS(=O)(=O)N1CCN(Cc2cc3nc(-c4cccc5[nH]ncc45)nc(N4CCOCC4)c3s2)CC1 [Pictilisib] (partner 1 µM)
Method in brief: as §1

[16] = compound: C1CN(CCC1C(C2=CC3=C(C=C2)OCO3)(C4=CC5=C(C=C4)OCO5)O)C(=O)OC6=CC=C(C=C6)[N+](=O)[O-] [JZL-184] + C[C@@H](Oc1cc(-c2cnn(C3CCNCC3)c2)cnc1N)c1c(Cl)ccc(F)c1Cl [Crizotinib] (partner 1 µM)
Method in brief: as §1

[17] = compound: C1CN(CCC1C(C2=CC3=C(C=C2)OCO3)(C4=CC5=C(C=C4)OCO5)O)C(=O)OC6=CC=C(C=C6)[N+](=O)[O-] [JZL-184] + C[C@]1(O)C[C@@H](c2nc(-c3ccc4ccc(-c5ccccc5)nc4c3)c3c(N)nccn32)C1 [Linsitinib] (partner 1 µM)
Method in brief: as §1

[18] = compound: C1CN(CCC1C(C2=CC3=C(C=C2)OCO3)(C4=CC5=C(C=C4)OCO5)O)C(=O)OC6=CC=C(C=C6)[N+](=O)[O-] [JZL-184] + Cc1nc(NC(=O)N2CCC[C@H]2C(N)=O)sc1-c1ccnc(C(C)(C)C(F)(F)F)c1 [Alpelisib] (partner 2 µM)
Method in brief: as §1

NCI-H1648
relative viability ([1]; 0.04 µM): 0.593
relative viability ([1]; 0.4 µM): 0.893
relative viability ([1]; 1.265 µM): 1.07
relative viability ([1]; 4 µM): 1.08
relative viability ([2]; first compound 0.04 µM): 0.402
relative viability ([2]; first compound 0.4 µM): 0.413
relative viability ([2]; first compound 1.265 µM): 0.481
relative viability ([2]; first compound 4 µM): 0.445
relative viability ([3]; first compound 0.04 µM): 0.271
relative viability ([3]; first compound 0.4 µM): 0.238
relative viability ([3]; first compound 1.265 µM): 0.233
relative viability ([3]; first compound 4 µM): 0.297
relative viability ([4]; first compound 0.4 µM): 0.24
relative viability ([4]; first compound 1.265 µM): 0.257
relative viability ([4]; first compound 4 µM): 0.223
relative viability ([5]; first compound 0.4 µM): 0.491
relative viability ([5]; first compound 1.265 µM): 0.466
relative viability ([5]; first compound 4 µM): 0.538
relative viability ([6]; first compound 0.04 µM): 0.694
relative viability ([6]; first compound 0.4 µM): 0.719
relative viability ([6]; first compound 1.265 µM): 0.824
relative viability ([6]; first compound 4 µM): 0.706
relative viability ([7]; first compound 0.04 µM): 0.712
relative viability ([7]; first compound 0.4 µM): 0.832
relative viability ([7]; first compound 1.265 µM): 0.651
relative viability ([7]; first compound 4 µM): 0.564
relative viability ([8]; first compound 0.04 µM): 0.437
relative viability ([8]; first compound 0.4 µM): 0.551
relative viability ([8]; first compound 1.265 µM): 0.546
relative viability ([8]; first compound 4 µM): 0.549
relative viability ([9]; first compound 0.04 µM): 0.307
relative viability ([9]; first compound 0.4 µM): 0.434
relative viability ([9]; first compound 1.265 µM): 0.754
relative viability ([9]; first compound 4 µM): 0.421
relative viability ([10]; first compound 0.04 µM): 1.03
relative viability ([10]; first compound 0.4 µM): 0.853
relative viability ([10]; first compound 1.265 µM): 0.783
relative viability ([10]; first compound 4 µM): 0.626

NCI-H1703
relative viability ([1]; 0.04 µM): 1.2
relative viability ([1]; 0.4 µM): 0.997
relative viability ([1]; 1.265 µM): 0.996
relative viability ([1]; 4 µM): 0.768
relative viability ([11]; first compound 0.04 µM): 0.349
relative viability ([11]; first compound 0.4 µM): 0.213
relative viability ([11]; first compound 1.265 µM): 0.359
relative viability ([11]; first compound 4 µM): 0.467
relative viability ([12]; first compound 0.04 µM): 1.6
relative viability ([12]; first compound 0.4 µM): 0.852
relative viability ([12]; first compound 1.265 µM): 1.54
relative viability ([12]; first compound 4 µM): 1.4
relative viability ([13]; first compound 0.04 µM): 0.356
relative viability ([13]; first compound 0.4 µM): 0.317
relative viability ([13]; first compound 1.265 µM): 0.402
relative viability ([13]; first compound 4 µM): 0.295
relative viability ([14]; first compound 0.04 µM): 1.44
relative viability ([14]; first compound 0.4 µM): 0.936
relative viability ([14]; first compound 1.265 µM): 1.4
relative viability ([14]; first compound 4 µM): 0.983
relative viability ([15]; first compound 0.04 µM): 0.265
relative viability ([15]; first compound 0.4 µM): 0.216
relative viability ([15]; first compound 1.265 µM): 0.288
relative viability ([15]; first compound 4 µM): 0.246
relative viability ([16]; first compound 0.04 µM): 0.865
relative viability ([16]; first compound 0.4 µM): 0.554
relative viability ([16]; first compound 1.265 µM): 0.726
relative viability ([16]; first compound 4 µM): 0.508
relative viability ([17]; first compound 0.04 µM): 0.893
relative viability ([17]; first compound 0.4 µM): 0.765
relative viability ([17]; first compound 1.265 µM): 0.738
relative viability ([17]; first compound 4 µM): 0.305
relative viability ([18]; first compound 0.04 µM): 0.335
relative viability ([18]; first compound 0.4 µM): 0.295
relative viability ([18]; first compound 1.265 µM): 0.389
relative viability ([18]; first compound 4 µM): 0.294
relative viability ([6]; first compound 0.04 µM): 0.106
relative viability ([6]; first compound 0.4 µM): 0.117
relative viability ([6]; first compound 1.265 µM): 0.129
relative viability ([6]; first compound 4 µM): 0.112
relative viability ([10]; first compound 0.04 µM): 0.521
relative viability ([10]; first compound 0.4 µM): 0.434
relative viability ([10]; first compound 1.265 µM): 0.576
relative viability ([10]; first compound 4 µM): 0.426
